In experiment [1] the target is T1, ER-α (Homo sapiens, UniProt P03372).
T1 construct: endogenous in cells; host or cells: MCF-7
The experiment is described as follows: Breast Cancer Cell ER-α in Cell Western Assay (SP1). It counts as cell-based. As to conditions: MCF7, read-out: ER In-Cell Western Assay (SP1); Max Response. The protocol:
MCF-7 cells were adjusted to a concentration of 200,000 cells per mL in RPMI containing 10% charcoal-stripped FBS and 20 mM HEPES. 16 microliters of the cell suspension (3200 cells) was added to each well of a poly-D-lysine 384 well plate, and the cells were incubated overnight to allow the cells to adhere. The following day an eleven point, serial semilog dilution of each compound was added to the cells in 16 μL at a final concentration ranging from 0.3-0.000003 μM. At 4 or 24 hr post compound addition, the cells were fixed (10% formalin in PBS) for 20 minutes. Cells were permeablized in PBS 0.1% Triton and blocked with LICOR blocking buffer (50 μl/well, 90′). The wells were then incubated overnight at 4° C. with SP1 rabbit monoclonal Ab (Thermo Scientific) diluted 1:1000 in LICOR blocking buffer/0.1% Tween-20. Wells which were treated with blocking buffer with Tween but no antibody were used as a background control. Wells were washed with 0.1% Tween-20/PBS and then incubated in goat anti-rabbit IRDye™ 800 CW (LICOR Inc.; 1:1000) and DRAQ5 DNA dye (1:2000 for 2 mM stock) diluted in LICOR blocking buffer containing 0.1% Tween-20 and 0.01% SDS for 60 minutes. Cells were washed (50 μl/well, 5′ each) in 0.1% Tween-20/PBS. Plates were scanned on a LICOR Odyssey infrared imaging system. Integrated intensities in the 800 nm channel and 700 nm channel were measured to determine levels of ER and DNA respectively. Percent ER levels were determined as follows: (Integrated intensity 800 nm sample/integrated intensity 700 nm sample)/(Integrated intensity 800 nm untreated cells/integrated intensity 700 nm untreated cells)×100=% ER levels.

The subject of experiment [2] is MCF-7 cells. The experiment in a line: Breast Cancer Cell Viability Assay (MCF7 Viability Assay). It is filed as cell-based. As to conditions: for IC50: Homo sapiens, MCF7, 120 h, read-out: MCF7 Viability Assay IC50. Here is the method: MCF-7 cells were adjusted to a concentration of 20,000 cells per mL in RPMI containing 10% FBS and 20 mM HEPES. 16 microliters of the cell suspension (320 cells) was added to each well of a 384 well plate, and the cells were incubated overnight to allow the cells to adhere. The following day an eleven point, serial semilog dilution of each compound was added to the cells in 16 μL at a final concentration ranging from 0.3-0.000003 μM. After 5 days' compound exposure, 16 μL of CellTiter-GLo (Promega, Madison Wis.) was added to the cells the relative luminescence units (RLUs) of each well was determined. CellTiter-Glo added to 32 μL of medium without cells was used to obtain a background value. The Percent viability of each sample was determined as follows: (RLU sample-RLU background/RLU untreated cells-RLU background)×100=% viability.

[3] abbreviates: MCF-7 cells, 5 days' compound exposure, CellTiter-Glo.

SMILES strings stand for the structures. Where two headings read alike, the source gives them in different places.

T1 sequence (P03372 whole entry): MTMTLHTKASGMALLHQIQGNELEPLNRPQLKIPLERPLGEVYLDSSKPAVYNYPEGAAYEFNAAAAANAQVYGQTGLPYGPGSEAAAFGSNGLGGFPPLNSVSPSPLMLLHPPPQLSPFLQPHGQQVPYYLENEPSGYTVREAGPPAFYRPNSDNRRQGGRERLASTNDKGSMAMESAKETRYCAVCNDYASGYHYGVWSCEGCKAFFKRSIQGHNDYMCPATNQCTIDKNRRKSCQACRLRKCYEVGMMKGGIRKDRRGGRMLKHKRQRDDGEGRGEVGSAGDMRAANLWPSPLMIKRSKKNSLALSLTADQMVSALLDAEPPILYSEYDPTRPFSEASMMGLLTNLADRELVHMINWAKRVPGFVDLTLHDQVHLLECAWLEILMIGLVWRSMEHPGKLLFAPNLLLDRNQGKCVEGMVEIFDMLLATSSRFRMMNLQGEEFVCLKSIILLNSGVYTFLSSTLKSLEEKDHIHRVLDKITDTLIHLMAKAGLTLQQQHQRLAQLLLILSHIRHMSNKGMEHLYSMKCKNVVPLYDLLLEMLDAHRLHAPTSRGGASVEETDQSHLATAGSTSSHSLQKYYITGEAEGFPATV

In the case of `CC1=C(c2ccc(C#N)cc2)C(c2ccc(OC[C@H](C)N3CC[C@@H](CF)C3)cc2)Oc2ccc(O)cc21` (stereo partly drawn) [Example 16], in experiment [1], the Emax is more than 85%. Further, in experiment [2] (setting [3]), the IC50 (as a rule, the concentration that gives 50% inhibition) was more than 1 nM and the “MCF7 Viability Assay Max Response” value was “++ (a single % value ≧ 50%)”.
The like results for `CC1=C(c2cccc(O)c2)C(c2ccc(OCCN3CCC(F)CC3)cc2)Oc2ccc(O)cc21` (stereo not drawn) [Example 17, 2-(4-(2-(4-Fluoropiperidin-1-yl)ethoxy)phenyl)-3-(3-hydroxyphenyl)-4-methyl-2H-chromen-6-ol] were, in that order, 60 to 85%, less than 1 nM and “++ (a single % value ≧ 50%)”.
As for `CC1=C(c2cccc(O)c2)C(c2ccc(OCCN3CCC[C@H]3CF)cc2)Oc2ccc(O)cc21` (stereo partly drawn) [Example 18, 2-(4-(2-((S)-2-(Fluoromethyl)pyrrolidin-1-yl)ethoxy)phenyl)-3-(3-hydroxyphenyl)-4-methyl-2H-chromen-6-ol], the Emax in experiment [1] is 60 to 85%. Further, the IC50 in experiment [2] was more than 1 nM. Further, in experiment [2] (setting [3]), the “MCF7 Viability Assay Max Response” value is on record as “++ (a single % value ≧ 50%)”.
On to `CC1=C(c2cccc(O)c2)C(c2ccc(OCCN3CCC[C@@H](CF)C3)cc2)Oc2ccc(O)cc21` (stereo partly drawn) [Example 20, 2-(4-(2-((R)-3-(Fluoromethyl)piperidin-1-yl)ethoxy)phenyl)-3-(3-hydroxyphenyl)-4-methyl-2H-chromen-6-ol], for which the Emax in experiment [1] is less than 60%. For the same molecule, in experiment [2] (setting [3]), the 50% inhibitory concentration (IC50) is less than 1 nM and the “MCF7 Viability Assay Max Response” value is listed as “+ (a single % value < 50%)”.
For `CC1=C(c2cccc(O)c2)C(c2ccc(OCCN3CC[C@@H](C(F)F)C3)cc2)Oc2ccc(O)cc21` (stereo partly drawn) [Example 21, (R)-2-(4-(2-(3-(Difluoromethyl)pyrrolidin-1-yl)ethoxy)phenyl)-3-(3-hydroxyphenyl)-4-methyl-2H-chromen-6-ol], the Emax in experiment [1] is more than 85%. For the same molecule, the IC50 in experiment [2] was less than 1 nM. Moreover, in experiment [2] (setting [3]), the “MCF7 Viability Assay Max Response” value is “++ (a single % value ≧ 50%)”.
For `CC1=C(c2cccc(O)c2)C(c2ccc(OCCN(C)CCCF)cc2)Oc2ccc(O)cc21` (stereo not drawn) [Example 22, 2-(4-(2-((3-Fluoropropyl)(methyl)amino)ethoxy)phenyl)-3-(3-hydroxyphenyl)-4-methyl-2H-chromen-6-ol], in experiment [1], the Emax was less than 60%. In experiment [2] (setting [3]), the concentration for half-maximal inhibition (IC50) is less than 1 nM and the “MCF7 Viability Assay Max Response” value was “+ (a single % value < 50%)”.
`CCN(CCF)CCOc1ccc(C2Oc3ccc(O)cc3C(C)=C2c2cccc(O)c2)cc1` (stereo not drawn) [Example 23, 2-(4-(2-(Ethyl(2-fluoroethyl)amino)ethoxy)phenyl)-3-(3-hydroxyphenyl)-4-methyl-2H-chromen-6-ol]: the Emax in experiment [1] is less than 60%. Moreover, in experiment [2] (setting [3]), the IC50 is more than 1 nM and the “MCF7 Viability Assay Max Response” value is listed as “++ (a single % value ≧ 50%)”.
For `CCN(CCCF)CCOc1ccc(C2Oc3ccc(O)cc3C(C)=C2c2cccc(O)c2)cc1` (stereo not drawn) [Example 24, 2-(4-(2-(Ethyl(3-fluoropropyl)amino)ethoxy)phenyl)-3-(3-hydroxyphenyl)-4-methyl-2H-chromen-6-ol], the Emax in experiment [1] was less than 60%. For the same molecule, in experiment [2] (setting [3]), the IC50 is less than 1 nM and the “MCF7 Viability Assay Max Response” value is on record as “++ (a single % value ≧ 50%)”.
The like results for `CCN(CCOc1ccc(C2Oc3ccc(O)cc3C(C)=C2c2cccc(O)c2)cc1)CCC(F)(F)F` (stereo not drawn) [Example 25, 2-(4-(2-(Ethyl(3,3,3-trifluoropropyl)amino)ethoxy)phenyl)-3-(3-hydroxyphenyl)-4-methyl-2H-chromen-6-ol] were, in that order, less than 60%, more than 1 nM and “+ (a single % value < 50%)”.
For `CC1=C(c2ccc(F)cc2)C(c2ccc(OCCN3CC[C@@H](CF)C3)cc2)Oc2ccc(O)cc21` (stereo partly drawn) [Example 26, 2-(4-(2-((R)-3-(Fluoromethyl)pyrrolidin-1-yl)ethoxy)phenyl)-3-(4-fluorophenyl)-4-methyl-2H-chromen-6-ol], in experiment [1], the Emax was more than 85%. For the same molecule, in experiment [2] (setting [3]), the 50% inhibitory concentration (IC50) was more than 1 nM and the “MCF7 Viability Assay Max Response” value is on record as “++ (a single % value ≧ 50%)”.
The like results for `CC1=C(c2ccc(F)cc2)C(c2ccc(OC[C@H](C)N3CC[C@@H](CF)C3)cc2)Oc2ccc(O)cc21` (stereo partly drawn) [Example 27] were, in that order, more than 85%, more than 1 nM and “++ (a single % value ≧ 50%)”.
`Cc1c(-c2ccc(O)cc2)n(Cc2ccc(OCCN3CC[C@@H](CF)C3)cc2)c2ccc(O)cc12` [Example 28, (R)-1-(4-(2-(3-(Fluoromethyl)pyrrolidin-1-yl)ethoxy)benzyl)-2-(4-hydroxyphenyl)-3-methyl-1H-indol-5-ol]: in experiment [1], the Emax was more than 85%. In experiment [2] (setting [3]), the 50% inhibitory concentration (IC50) is less than 1 nM and the “MCF7 Viability Assay Max Response” value is on record as “++ (a single % value ≧ 50%)”.

These data come from patent US9193714B2, “Fluorinated estrogen receptor modulators and uses thereof” (priority 2011, dated 2015).
